In experiment [1] the test system is LS174T. Description: Concentration required to inhibit the incorporation of [3H]leucine to 50 percent of control uptake in LS174T (CEA +ve) Human Colon Carcinoma cells. The class given is functional, cell-based.
Experiment [2] can be described thus: Conjugation ratio (CR) indicating the number of moles of compound required per 1 mole of antibody (having Molar input ratio (MIR) = 8) was determined.

Values after ≈ are worked out from the molar mass of the structure shown.

As usually defined, the IC50 is the concentration at which inhibition is half-maximal. Lower therefore signals greater potency. In the case of `COc1ccc(C(Nc2nc(N)nc3c2ncn3[C@@H]2O[C@H](CO)[C@@H](O)C2(F)F)(c2ccccc2)c2ccc(C(N)=O)cc2)cc1` (stereo partly drawn), the IC50 in experiment [1] turned out to be 4.94 µg/mL (≈ 8 µM). Moreover, the CR in experiment [2] is 5.73. In the same order, the values of `COc1ccc(C(Nc2nc(N)nc3c2ncn3[C@@H]2O[C@H](CO)[C@@H](O)C2(F)F)(c2ccc(OC)cc2)c2ccc(C(N)=O)cc2)cc1` are 0.27 µg/mL (≈ 0.417 µM) and 7.44. Take `COc1ccc(C(Nc2nc(N)nc3c2ncn3[C@@H]2O[C@H](CO)[C@@H](O)C2(F)F)(c2ccc(C)cc2)c2ccc(C(N)=O)cc2)cc1` (stereo partly drawn): in experiment [1], half-maximal inhibition (IC50) was put at 2.71 µg/mL (≈ 4.29 µM). The CR in experiment [2] is 7.49. In the case of `COc1ccc(C(Nc2nc(N)nc3c2ncn3[C@@H]2O[C@H](CO)[C@@H](O)C2(F)F)(c2ccc(OC)cc2)c2cccc(C(N)=O)c2)cc1`, 0.352 µg/mL (≈ 0.544 µM) corresponded to half-maximal inhibition in experiment [1] (IC50). Further, in experiment [2], the CR worked out at 6.44. The corresponding values for `Cc1ccc(C(Nc2nc(N)nc3c2ncn3[C@@H]2O[C@H](CO)[C@@H](O)C2(F)F)(c2ccccc2)c2ccc(C(N)=O)cc2)cc1` (stereo partly drawn) are 6.04 µg/mL (≈ 10 µM) and 5.2. Regarding `NC(=O)c1ccc(C(Nc2nc(N)nc3c2ncn3[C@@H]2O[C@H](CO)[C@@H](O)C2(F)F)(c2ccccc2)c2ccccc2)cc1`, in experiment [1], the concentration for half-maximal inhibition (IC50) came to 10 µg/mL (≈ 17 µM). The CR in experiment [2] turned out to be 4.44. In the case of `Nc1nc(N)c2ncn([C@@H]3O[C@H](CO)[C@@H](O)C3(F)F)c2n1`, the half-maximal inhibitory concentration (IC50) in experiment [1] is 0.26 µg/mL (≈ 0.86 µM).

Values taken from ChEMBL document CHEMBL1128845, “Novel trityl linked drug immunoconjugates for cancer therapy” (Bioorg Med Chem Lett, 1995).
